Reference: paper PMC3183052, “Immunoprotectivity of HLA-A2 CTL Peptides Derived from Respiratory Syncytial Virus Fusion Protein in HLA-A2 Transgenic Mouse” (PLoS ONE, 2011)

Experiments:
HLA-A*0201 = target: T1, HLA-A*0201 (Homo sapiens, UniProt P04439, D140Y/D185E/D98H/E176V/E277Q/G131W/G231S/I119V/I121R/I166T/I218V/L300P/L318F/N151K/N90K/P208A/P217A/Q86G/Q94H/R138H/R169H/T345S); test: T2 cell-stabilization assay (T2-binding); conditions: for binding affinity, MFI higher than the baseline: T2 cell-based binding assay, baseline = negative control HCV C55-74, called modest binding affinity; for T2-binding Ratio of MFI: T2 cells 5×10^5, peptide 50 µg/mL + β2-microglobulin 5 µg/mL, 28°C 16–18 h, then brefeldin A 10 µg/mL 37°C 3 h, FITC anti-HLA-A2, flow cytometry, MFI relative to negative control HCV C55-74 (set as 1)
T1 construct: Human T2 cells (purchased from the American Type Culture Collection, ATCC) (ATCC No. CRL-1992) expressing the HLA-A*0201 gene; endogenous in cells; host or cells: human T2 cells (ATCC CRL-1992)
Procedure: T2 cells (5×10^5) cultured in 96-well U-bottom plates were incubated with the individual 9-mer synthetic peptides (50 µg/mL) and β2-microglobulin (5 µg/mL; Sigma-Aldrich) at 28°C for 16–18 hours. Subsequently, brefeldin A (10 µg/mL) was added and the cells were incubated at 37°C for another 3 hours, then washed and stained with fluorescence isothiocyanate (FITC)-conjugated mouse anti-human HLA-A2 antibody (SeroTec). Peptide-loaded T2 cells were acquired and analyzed on the FACScan flow cytometer using CellQuest software (Becton Dickinson). GLC-9 peptide was used as positive control (PC). The mean fluorescence intensity (MFI) represents the binding affinity of each peptide compared to MFI (set as MFI = 1) obtained from negative control (NC), which is T2 cells loaded with HCV peptide C55-74.
Twenty-five 9-mer synthetic peptides derived from the RSV F glycoprotein sequence presumed to encompass HLA-A*0201 binding motifs were synthesized (Table 1). Each was tested for its ability to bind HLA-A*0201 molecules by T2 cell-based binding assay (data not shown). The relative mean fluorescence intensity (MFI) obtained from the positive control (PC) peptide derived from Epstein-Barr virus capsid protein (GLC-9, a previously defined HLA-A*0201-restricted CTL epitope) was twofold (MFI = 1.96) compared to the baseline MFI = 1 obtained from the negative control (NC) treated with an unrelated peptide HCV C55-74 (a C57BL/6-specific CD4 epitope). […] The remaining peptides had no detectable binding to the HLA-A*0201 molecules. Apparently, the different MFIs generated by binding of RSV F-derived peptides to HLA-A*0201 reflects on the binding specificity of different peptides to a given HLA molecule.

[1] = system: splenocytes from HLA-A*0201 transgenic C57BL/6 mice; test: IFN-γ ELISPOT of splenocytes restimulated with peptide; assay type: cell-based, mouse; conditions: for IFN-γ ELISPOT, RSV: splenocytes of HLA-Tg B6 mice primed and boosted i.n. with 10^4 pfu RSV-B1; for IFN-γ ELISPOT, RSV / IFN-γ ELISPOT, rAd-F0: restimulated with 2 µg peptide, representative of two experiments, five mice per group; for IFN-γ ELISPOT, rAd-F0: splenocytes of HLA-Tg B6 mice primed and boosted i.n. with 10^7 pfu rAd-F0; for IFN-γ level in restimulated splenocytes (ELISPOT, text grading): splenocytes of rAd-F0- or RSV B1-primed and boosted HLA-Tg B6 mice, high = over 100 spots, moderate = over 50 spots
Procedure: (§1) To screen the immunodominance of epitopic peptide in the induction of RSV-F specific Th1/Th2 expression, HLA-A*0201 transgenic C57BL/6 mice were anesthetized with isoflurane and immunized with 1×10^7 pfu/50 µL of rAd-F0 or rAd-LacZ or 1×10^4 live RSV B1 via the intranasal (i.n.) route. Twenty days later, the mice were given booster immunization i.n. with the same dose. After 10 days of boost, mice were sacrificed and splenocytes were isolated for the cytokine ELISPOT assay. For peptide-based vaccination, transgenic mice were immunized subcutaneously (s.c.) with 50 µg of the individual synthetic peptides emulsified in 25 µL of incomplete Freund's adjuvant (IFA) (Sigma-Aldrich) and then boosted after 10 days s.c. with the same dose of the respective peptides mixed with IFA. Mice were sacrificed 7 days after the booster and splenocytes were isolated for in vitro peptide-restimulation. For challenge studies, 10^7 pfu of live RSV-B1 was administered i.n. seven days after the booster immunization with peptide vaccines. Mice were sacrificed on day 4 post-challenge and the lung tissues were collected and subjected to further analysis by flow cytometry, ELISA, CTL assay and immunohistochemistry. Mice body weight was monitored daily.
(§2) […] RBC-free splenocyte suspensions prepared from the individual mice were seeded in individual wells of 96-well filtration plates (Millipore) precoated with capturing monoclonal antibodies for murine IL-2, IL-4 or IFN-γ (0.5 µg/ well) (eBioscience) and blocked with conditioned medium (CM) for 1 hour at room temperature. The splenocytes were added with the individual RSV F 9-mer synthetic peptides (2 µg each) or GLC-9 dissolved in CM (100 µL). The splenocytes added with Con A (10 µg/mL) were used as positive control. Unstimulated splenocytes were used as negative control. The plates were kept in a 37°C incubator equilibrated with 5% CO2 for 48 hours. The individual wells of the ELISPOT plates were washed three times with washing buffer (0.05% tween20 in PBS, PBS-T), and then 0.2 µg of the corresponding biotinylated detection monoclonal antibodies specific for IL-2, IL-4 and IFN-γ were added to detect the respective cytokines. After 2 hours of incubation at room temperature, the plates were washed and 100 µl of streptavidin-alkaline phosphatase (1∶ 250 dilution) was added to the individual wells, and the plates were incubated at room temperature for 45 minutes. Finally, the plates were washed four times with the wash buffer, and 100 µl of AEC (3-amine-9-ethylcarbazole, Sigma-Aldrich) substrate was added to each well and allowed to react for 30 minutes at room temperature in the dark. The plates were then washed with water, air-dried overnight, and the spots per well were scored using the immunospot counting reader (C.T.L. IMMUNOSPOT, CELLULAR TECHNOLOGY LTD). Results were expressed as the number of cytokine-secreting cells per 5×10^5 splenocytes seeded in the initial culture.
(§3) Figure 1 Induction of IFN-γ and IL-2 in splenocytes from RSV F peptide immunized HLA-A*0201 transgenic mice upon secondary recall. Splenocytes harvested on day 30 from HLA-A-Tg B6 mice primed and boosted at 20 days interval intranasally with 10^7 pfu of rAd-F0 (□) or 10^4 pfu of RSV-B1 (▪)were restimulated with 2 µg of the individual RSV F peptide or 10 µg/ml Con A for 5 days in the presence of murine IL-2 . After stimulation, 5×10^5 splenocytes were seeded to anti-IFN-γ (A) or anti-IL-2 (B) capture antibody coated ELISPOT plates for 2 days for ELISPOT assay as described in Materials and Methods. Cytokine-positive immunospots were developed and the results are expressed as the number of immunospots +/−2 standard deviations for each experimental group. Data is representative of results derived from two independent experiments, each with five mice per group.

[2] = system: splenocytes from HLA-A*0201 transgenic C57BL/6 mice; test: IL-2 ELISPOT of splenocytes restimulated with peptide; assay type: cell-based, mouse; conditions: for IL-2 ELISPOT, RSV: splenocytes of HLA-Tg B6 mice primed and boosted i.n. with 10^4 pfu RSV-B1; for IL-2 ELISPOT, RSV / IL-2 ELISPOT, rAd-F0: restimulated with 2 µg peptide, representative of two experiments, five mice per group; for IL-2 ELISPOT, rAd-F0: splenocytes of HLA-Tg B6 mice primed and boosted i.n. with 10^7 pfu rAd-F0; for IL-2 level in restimulated splenocytes (ELISPOT, text grading): splenocytes of rAd-F0- or RSV B1-primed and boosted HLA-Tg B6 mice, high = over 100 spots, moderate = over 50 spots
Procedure: as §1, §2, §3

| Substance | binding affinity, MFI higher than the baseline (HLA-A*0201) [%] | T2-binding Ratio of MFI (HLA-A*0201) | IFN-γ ELISPOT, RSV [1] | IFN-γ ELISPOT, rAd-F0 [1] | IFN-γ level in restimulated splenocytes (ELISPOT, text grading) [1] | IL-2 ELISPOT, RSV [2] | IL-2 ELISPOT, rAd-F0 [2] | IL-2 level in restimulated splenocytes (ELISPOT, text grading) [2] |
| --- | --- | --- | --- | --- | --- | --- | --- | --- |
| TLLLWVLLL [peptide 1, HLA-A*0201-restricted 9-mer synthetic peptide from F protein of RSV-B1 strain] | ~10 | 1.19 | 69.5 cytokine-secreting cells per 5×10^5 splenocytes | 33.5 cytokine-secreting cells per 5×10^5 splenocytes | over 50 spots | 39.5 cytokine-secreting cells per 5×10^5 splenocytes | 85.5 cytokine-secreting cells per 5×10^5 splenocytes | over 50 spots |
| 8: HLA-A*0201-restricted 9-mer synthetic peptide from F protein of RSV-B1 strain (ALLSTNKAV) [compound 8] | ~10 | 1.50 | 86 cytokine-secreting cells per 5×10^5 splenocytes | 36 cytokine-secreting cells per 5×10^5 splenocytes | over 50 spots | 43 cytokine-secreting cells per 5×10^5 splenocytes | 8.5 cytokine-secreting cells per 5×10^5 splenocytes | – |
| 18: HLA-A*0201-restricted 9-mer synthetic peptide from F protein of RSV-B1 strain (SVGNTLYYV) [compound 18] | ~10 | 1.29 | 92.5 cytokine-secreting cells per 5×10^5 splenocytes | 115 cytokine-secreting cells per 5×10^5 splenocytes | over 100 spots | 42 cytokine-secreting cells per 5×10^5 splenocytes | 0 cytokine-secreting cells per 5×10^5 splenocytes | – |
| 16: HLA-A*0201-restricted 9-mer synthetic peptide from F protein of RSV-B1 strain (LMSNNVQIV) [compound 16] | – | 1.60 | 28 cytokine-secreting cells per 5×10^5 splenocytes | 54 cytokine-secreting cells per 5×10^5 splenocytes | over 50 spots | 50.5 cytokine-secreting cells per 5×10^5 splenocytes | 52 cytokine-secreting cells per 5×10^5 splenocytes | over 50 spots |
| 25: HLA-A*0201-restricted 9-mer synthetic peptide from F protein of RSV-B1 strain (SLIAVGLLL) [compound 25] | ~10 | 1.42 | 96 cytokine-secreting cells per 5×10^5 splenocytes | 41 cytokine-secreting cells per 5×10^5 splenocytes | over 50 spots | 44.5 cytokine-secreting cells per 5×10^5 splenocytes | 31 cytokine-secreting cells per 5×10^5 splenocytes | – |
| 9: HLA-A*0201-restricted 9-mer synthetic peptide from F protein of RSV-B1 strain (LLSTNKAVV) [compound 9] | – | 1.53 | 1 cytokine-secreting cells per 5×10^5 splenocytes | 27.5 cytokine-secreting cells per 5×10^5 splenocytes | – | 2 cytokine-secreting cells per 5×10^5 splenocytes | 5 cytokine-secreting cells per 5×10^5 splenocytes | – |
| 22: HLA-A*0201-restricted 9-mer synthetic peptide from F protein of RSV-B1 strain (VIIVILLSL) [compound 22] | – | 0.97 | 49 cytokine-secreting cells per 5×10^5 splenocytes | 88.5 cytokine-secreting cells per 5×10^5 splenocytes | over 50 spots | 55 cytokine-secreting cells per 5×10^5 splenocytes | 21.5 cytokine-secreting cells per 5×10^5 splenocytes | over 50 spots |
| 4: HLA-A*0201-restricted 9-mer synthetic peptide from F protein of RSV-B1 strain (ELDKYKNAV) [compound 4] | – | 0.94 | 34.5 cytokine-secreting cells per 5×10^5 splenocytes | 88.5 cytokine-secreting cells per 5×10^5 splenocytes | over 50 spots | 51.5 cytokine-secreting cells per 5×10^5 splenocytes | 49.5 cytokine-secreting cells per 5×10^5 splenocytes | over 50 spots |
| 19: HLA-A*0201-restricted 9-mer synthetic peptide from F protein of RSV-B1 strain (KINQSLAFI) [compound 19] | – | 1.08 | 7.5 cytokine-secreting cells per 5×10^5 splenocytes | 200 cytokine-secreting cells per 5×10^5 splenocytes | over 100 spots | 36.5 cytokine-secreting cells per 5×10^5 splenocytes | 52 cytokine-secreting cells per 5×10^5 splenocytes | over 50 spots |
